Assays:
Trop-2 [1] = experiment: Depletion of cholesterol from cell membranes, release of Trop-2; assay type: cell-based; conditions: MTE4-14 cells transfected with Trop-2; 10 mM, 37° C., 45 min; Western blot, FIG. 3f
Experimental: To deplete cell membranes of cholesterol, intact cells were washed three times in PBS to remove serum and incubated in DMEM with 10 mM methyl-β-cyclodextrin at 37° C. for 45 min. Control cells were processed in parallel in the absence of methyl-β-cyclodextrin. Samples were centrifuged at 2000 g to remove cells and cell debris. Proteins in the supernatant were precipitated in trichloroacetic acid and analysed by Western blotting.

[2] = tested on: Colo205 colon cancer cells; experiment: Xenografts in athymic nude mice, Colo205; conditions: 0.35 mg/mouse intraperitoneally every day, in vivo growth curves
Experimental: (§1) MTE 4-14 immortalized cell line transfected with Trop-2 (Alberti, Nutini et al. 1994), or Colo205 colon cancer cells, endogenously expressing Trop-2, were injected subcutaneously (4×10^6 cells/injection) into nude mice groups (8 weeks females, CD1-Foxn1 nu/nu mice (Charles River Laboratories, Calco, Lecco, Italy). MTE 4-14 cells transfected with Trop-2 were co-injected with Matrigel 1:3 vol/vol (growth factor reduced matrix, BD Biosciences, Franklin Lakes, N.J. USA). A stock solution of MK-2206 in DMSO was diluted at the time of use in apyrogenic saline solution, to a final concentration of 0.7 mg/ml, and the drug was administered intraperitoneally at a dose of 0.35 mg/mouse every day, starting from the time in which the tumors became palpable. Control group mice were treated with the vehicle alone. Mice were visually inspected every 5-7 days and the major and minor diameters of the experimental tumors were measured. The tumor volume was calculated using the formula for the volume of ellipsoid (Dxd2/2). MTE 4-14 cells transfected with the empty vector were not tumorigenic in this model. […]

[3] = tested on: MTE 4-14 cells transfected with Trop-2; experiment: Xenografts in athymic nude mice, MTE 4-14 transfected with Trop-2; conditions: MTE 4-14/Trop-2; 0.35 mg/mouse intraperitoneally every day; in vivo growth curves
Experimental: as §1

[4] = tested on: MTE 4-14 cells transfected with the empty vector; experiment: In vitro cell-growth assay, MTE 4-14 cells transfected with the empty vector; assay type: cell-based, murine; conditions: siRNA transfection, growth curves, FIG. 7d
Experimental: (§2) MTE 4-14 cells transfected with the empty vector or with Trop-2 were seeded at 1.5-3×10^3 cells/well in 96-well plates (five replica wells per data point). Cell numbers were quantified by the MTT colorimetric assay (Roche Molecular Biochemicals, Mannheim, Germany) or by staining with crystal violet. Cell numbers were normalised against a reference standard curve of serially diluted cell samples.
(§3) Cells were treated with 50-100-200-400 nM A6730_SIGMA (Sigma Technical Company, St Louis, Mo. 63178-9916) or with 400 nM MK-2206 (Selleck Chemicals, Houston, Tex.) to inhibit Akt. Stock solutions were prepared in DMSO and diluited in ethanol or water, with the final concentration of DMSO and ethanol never exceeding 0.1% and 1% respectively. Control cells received vehicle alone. A second treatment was performed 24 hours after seeding.
(§4) The corresponding constructs were transiently transfected into MTE 4-14 cells, and their effect on cell proliferation was evaluated. The levels of transcripts after silencing were quantified by real-time RT-PCR. siRNAs directed against irrelevant targets were used as negative controls, chosen after thorough verification of the absence of spurious effects on cell growth. […]

[5] = tested on: MTE 4-14 cells transfected with Trop-2; experiment: In vitro cell-growth assay, MTE 4-14 cells transfected with Trop-2; assay type: cell-based, murine; conditions: siRNA transfection, growth curves, FIG. 7d
Experimental: as §2, §3, §4

Akt = experiment: Western blot of Akt phosphorylation in MTE 4-14 transfectants with or without PMA; assay type: cell-based, murine
Experimental: Western blotting was performed as previously described (El Sewedy, Fornaro et al. 1998). In brief, cell lysates were analyzed by electrophoresis on denaturing polyacrylamide gel (SDS-PAGE) and transfered onto nitrocellulose filters. Filters were incubated with the relevant primary antibodies (Abcam, Cambridge, UK; Santa Cruz) in TBS with 5% non-fat dried milk. Hybridized filters were washed in TBS, 0.1% Tween-20. […] Signal intensity was quantified with NIH-image 1.62, using as reference a Kodak gray-scale standards power curve (www.kodak.com).

Trop-2 [6] = experiment: Precipitation of cholesterol from BRIJ lysate, precipitation of Trop-2; conditions: MTE4-14 cells transfected with Trop-2; Western blot, FIG. 3f
Experimental: Cells were also harvested by scraping and lysed in buffer with 1% BRIJ. The supernatant was mixed with either 1/10 (vol/vol) methanol (control) or 1/10 (vol/vol) 10% digitonin in methanol, and incubated on ice for 10 min. Cell membranes were recovered by centrifugation at 12,000 g for 15 min. The pellet was washed in cold acetone, resuspended in Laemmli buffer and analysed by Western blotting.

[7] = biological target: T1, Trop-2 (human, wild-type) (human, UniProt P09758 27-323); experiment: confocal microscopy of intact cells, co-capping and cell footprints, MTE 4-14 cells transfected with Trop-2
T1 construct: whole, on cells; Full-length protein expressed in cells (MTE 4-14 transfectants, MCF7); also called T2
T1 sequence (looked up): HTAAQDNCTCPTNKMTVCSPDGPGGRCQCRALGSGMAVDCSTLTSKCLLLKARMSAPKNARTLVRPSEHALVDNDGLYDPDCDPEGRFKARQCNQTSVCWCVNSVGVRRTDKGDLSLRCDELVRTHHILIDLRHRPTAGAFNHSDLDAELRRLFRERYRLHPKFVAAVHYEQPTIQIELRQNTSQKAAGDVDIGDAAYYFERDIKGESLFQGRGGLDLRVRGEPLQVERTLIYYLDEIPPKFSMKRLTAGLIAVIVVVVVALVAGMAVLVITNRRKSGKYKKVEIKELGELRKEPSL
Text: FIG. 3. Interaction of Trop-2 and PKCα with tetraspanin molecules and CD9. (a-d) Confocal microscopy analysis of intact cell membranes (a), membrane areas showing co-capping (b), footprints of cell membranes (c, d) of MTE 4-14 cells transfected with Trop-2 (a-c, d top) or with the empty vector (d bottom) stained simultaneously with anti-Trop-2 and anti-CD9 (member of tetraspanin webs) or anti-caveolin (negative control) (a-c) or anti-CD9 and anti PKCα (d) conjugated with fluorescent molecules. Areas of colocalization are indicated by arrowheads. (e) Co-immunoprecipitation (IP) of Trop-2, PKCα, CD9 and tetraspanins. Immunoprecipitation was performed using primary antibodies against murine CD9, CD81 and CD151 (MTE 4-14cells) or human CD9, CD82 and CD151 (MCF7 cells); the presence of Trop-2 and PKCα in immunoprecipites was detected by Western blot. IP with anti-Trop-2: positive control. (f) Trop-2/cholesterol association. Release of Trop-2 in the culture medium after treatment with methyl-β-cyclodextrin (MβCD) (left). Precipitation of Trop-2 with digitonin from BRIJ lysate (right). The treatments were performed on MTE4-14 cells transfected with Trop-2, and the presence of Trop-2 in the soluble and insoluble fractions was assessed by Western blot.

methyl-β-cyclodextrin
release of Trop-2 in the culture medium (Trop-2 [1]): induce the release of Trop-2 in the culture medium

NC1(c2ccc(-c3nc4ccn5c(=O)[nH]nc5c4cc3-c3ccccc3)cc2)CCC1 [MK-2206]
Difference between control and treated tumors, P (two-way ANOVA) [2]: < 0.0001 | Difference between control and treated tumors, P (two-way ANOVA) [3]: < 0.0001

anti-CD9 siRNA: anti-CD9 siRNA with target sense sequence 5′ GGTAGCAAGT GCATCAAAT 3′, expressed as hairpin RNA from pSUPER vector (sense GGTAGCAAGTGCATCAAAT; antisense ATTTGATGCACTTGCTACC; listed as Mus musculus)
proliferation of Trop-2-negative cells [4]: essentially no impact | proliferation of MTE 4-14 cells expressing Trop-2 [5]: striking reduction

CCCCCCCCCCCCCC(=O)O[C@@H]1[C@@H](C)[C@@]2(O)[C@@H](C=C(CO)C[C@]3(O)C(=O)C(C)=C[C@@H]23)[C@@H]2C(C)(C)[C@]12OC(C)=O [PMA]
Akt-S473 phosphorylation (Akt; MTE 4-14 cells transfected with Trop-2, FIG. 6b): reduction, further increased by PMA | Akt-T308 phosphorylation levels (Akt; MTE 4-14 transfectants, FIG. 6b): no effect

C[C@@H]1CC[C@@]2(OC1)O[C@H]1[C@@H](O)[C@H]3[C@@H]4CC[C@H]5C[C@@H](O[C@@H]6O[C@H](CO)[C@H](O[C@@H]7O[C@H](CO)[C@@H](O)[C@H](O[C@@H]8OC[C@@H](O)[C@H](O)[C@H]8O)[C@H]7O[C@@H]7O[C@H](CO)[C@H](O)[C@H](O[C@@H]8O[C@H](CO)[C@@H](O)[C@H](O)[C@H]8O)[C@H]7O)[C@H](O)[C@H]6O)[C@H](O)C[C@]5(C)[C@H]4CC[C@]3(C)[C@H]1[C@@H]2C [digitonin]
precipitation of Trop-2 from lysates of cell membranes in BRIJ (Trop-2 [6]): precipitation of Trop-2

B1: caveolin (other, murine, UniProt P49817 2-178, looked up)
chain: SGGKYVDSEGHLYTVPIREQGNIYKPNNKAMADEVTEKQVYDAHTKEIDLVNRDPKHLNDDVVKIDFEDVIAEPEGTHSFDGIWKASFTTFTVTKYWFYRLLSTIFGIPMALIWGIYFAILSFLHIWAVVPCIKSFLIEIQCISRVYSIYVHTFCDPLFEAIGKIFSNIRISTQKEI
notes: Lipid-raft marker used as negative control in the confocal, co-capping and footprint analyses; also called caveolin-1
binding result [7]: no binding
